Test results from US20230095558A1, “IMMUNE CHECKPOINT TIM3-TARGETING BINDING PEPTIDE AND APPLICATION THEREOF” (Sparx Biotech (Jiangsu) Co., Ltd., priority 2020, published 2023).
No end group written: not given here.

Columns and labels:
TIM3 protein = target: T1, TIM3 protein (Homo sapiens, UniProt Q8TDQ0); assay: SPR affinity of TIM3-targeting binding peptides to immobilized TIM3 protein; details: TIM3 sensor chip, dissociation rate
T1 sequence (Q8TDQ0 22-301): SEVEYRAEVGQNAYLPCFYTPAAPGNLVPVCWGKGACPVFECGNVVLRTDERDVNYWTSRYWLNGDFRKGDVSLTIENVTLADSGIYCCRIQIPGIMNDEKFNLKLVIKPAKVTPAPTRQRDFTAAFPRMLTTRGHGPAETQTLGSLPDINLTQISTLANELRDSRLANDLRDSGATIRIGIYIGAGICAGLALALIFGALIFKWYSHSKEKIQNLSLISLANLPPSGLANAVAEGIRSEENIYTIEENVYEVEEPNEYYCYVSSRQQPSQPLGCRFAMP
Method: The binding properties of the TIM3-targeting binding peptides to TIM3 and their competition experiments with Galectin-9-bound TIM3 were identified by flow cytometry and surface plasmon resonance (SPROpenSPR, Nicoya, V3.01) detection.
SPR assay: Affinity identification between the TIM3-targeting binding peptides and TIM3 was performed by immobilizing TIM3 protein (50 μg/mL) on the surface of a nanogold sensor chip upon activation of EDC/NHS. The TIM3-targeting binding peptides were diluted with buffer (PBS, pH 7.4) to concentrations of […], 19.5 μM, 39 μM and 78 μM, respectively. The competitive binding ability of the TIM3-targeting binding peptides to the ligand was identified by immobilizing the Galectin-9 protein (25 μg/mL) on a sensor chip at a detection concentration of 100 μg/mL for the TIM3-targeting binding peptides, and at a concentration of the mixed sample of 100 μg/mL TIM3-targeting binding peptides and 10 μg/mL TIM3 protein. The detection sample was loaded at a flow rate of 20 μL/min for about 7 min according to the instrument instructions. The KD, ka and kd values were calculated and analyzed by Trace Drawer Evaluation (version 2.0) software.

CD4+ T cells = assay: Mixed lymphocyte reaction (DCs + CD4+ T cells), cytokine ELISA; type: cell-based, human; details: MLR; for expression level of INF-γ: ELISA on day 5, vs control groups (P<0.01 or P<0.05)
Method: Identification of the functional activity of TIM3-targeting binding peptides was performed by evaluating the levels of activation and proliferation of T cells, i.e., the levels of expression of IL-2 and IFN-γ cytokines. First, Dendritic Cells (DCs) and CD4+T cells were obtained by magnetic bead sorting, and then the levels of IFN-γ cytokines and IL-2 were detected by a Mixed Lymphocyte Reaction (MLR) experiment simulating close to human physiological environment and an ELISA experiment, to identify biological activities of the TIM3-targeting binding peptides.
Culture of Dendritic cells (DCs): Isolated dendritic cells (DCs) were cultured in Mo-DC differentiation medium (10^7 cells/10 mL medium), and 10 mL of the same medium was added to the cells after 3 days (the cells were cultured in the differentiation medium at 37° C., 5% CO2 and >95% humidity for 6 days). On day 7, DCs were resuspended in Mo-DC mature medium and cultured for further 3 days by addition of the Mo-DC differentiation medium. Matured DC and newly isolated T cells (DC and T cells from different donors) were mixed for mixed lymphocyte reaction. Approximately 1×10^4 DCs and 1×10^5 T cells per well were mixed and cultured in 200 μL RPMI-1640 medium with 10% FBS. To evaluate the activity (gradient action), competitive inhibition (P26 and ligand), synergistic effect (TIM3-targeting binding peptides and the PD-1 inhibitor Opdivo) of the binding peptides TIM3-targeting binding peptides, the corresponding concentrations of peptides, Opdivo, Galectin-9 were added to the corresponding wells to interact with the cells. The expression levels of IFN-γ (or IL-2) secreted in the cell supernatant were measured on day 5.
T cell activity were tested according to the instructions of the ELISA kit. Briefly, the capture antibody dilutions were coated on a 96-well plate overnight (24 hours) at room temperature at a concentration of 2 μg/mL in a volume of 100 μL. On the following day, the capture antibody solution was aspirated and the wells were washed three times with 300 μL wash buffer PBST (0.05% Tween®20, pH 7.2-7.4). Thereafter, the test wells were blocked with 300 μL of 1% BSA-PBS for 1 hour. After blocking, the test wells were washed in the same manner as above and 100 μL of the test samples or standards (in 1% BSA-PBS) were pipetted into each well for 2 hours. Thereafter, the detection antibody (125 ng/mL, 100 μL) was added to each well according to the instructions of the human IFN-γ/IL-2 Duo Set ELISA kit, and incubated for 2 hours. Then, HRP (100 μL, incubated for 20 minutes) and TMB (100 μL) were added. At the end of each step, each well was washed in the same manner as described above. After completion of the color development, the test wells were terminated with 12.5% H2SO4 (50 μL/well) and read on an ELISA plate reader at a wavelength of 450/570 nm. All experimental test wells were repeated.

MC38-hPDL1 tumor = assay: In vivo anti-tumor growth in MC38-hPDL1 tumor-bearing mice humanized with TIM3; parameters: species or system C57BL/6J mice transduced with the human TIM3 gene; details: 21 days, intraperitoneal, P26 5 mg/kg QD, ATE 10 mg/kg twice a week
Text: In this example, the anti-tumor growth effect of the TIM3-targeting binding peptides was farther examined in mice. The tumor inhibitory effect of the TIM3-targeting binding peptides on C57BL/6J MC38-hPDL1 tumor-bearing mice humanized with TIM3 was detected by the following experimental steps: 1. Inoculation of mice: […]-hPDL1 tumor cells (1×10^6 cells/mouse) were inoculated subcutaneously into C57BL/6J mice transduced with the human TIM3 gene. 2. Grouping: Mice were randomly divided into 4 groups with 7 mice per group when tumors reached 80 100 mm^3. 3. Administration: PBS (negative control), PD-L1 humanized antibody (positive control), polypeptides alone (experimental group) and polypeptides plus PD-L1 humanized antibody (synergistic effect group) were administered intraperitoneally to mice in each group, respectively. The amount of antibody used was 10 mg/kg twice a week. The amount of polypeptide was 5 mg/kg once daily. Tumor size and body weight of the mice were measured every 3 days. 4. Post-administration treatment: mice were euthanized 3 weeks after administration. Tumors were isolated, weighed, and photographed.

koff (TIM3 protein) | Sequence | expression level of INF-γ (CD4+ T cells) | tumor volumes (MC38-hPDL1 tumor; compared to control group) | growth of the tumor (tumor weight) (MC38-hPDL1 tumor; vs control group P<0.05) | reversal of Galectin-9-mediated inhibition of CD4+ T cell activation (IFN-γ and IL-2 expression levels) (CD4+ T cells; P26 100 μg/mL, Galectin-9 5 μg/mL, ELISA)
7.47×10^−3 S^−1 | ADFRVMADMSMY [P29, ADFRVMADMSMY] | significantly increased | – | – | –
3.08×10^−3 S^−1 | ALWPSSSMSSTI [P1303, ALWPSSSMSSTI] | significantly increased | – | – | –
1.03×10^−2 S^−1 | FTYAHPVSHRWESSVHVDQW [K2] | significantly increased | – | – | –
– | GLIPLTTMHIGK (A TIM3-targeting binding peptide) [P26, 12-peptide targeting TIM3] | significantly increased | tended to decrease | inhibited | reversed
1.69×10^−5 S^−1 | GSWNTFRAQPTI [P24, GSWNTFRAQPTI] | – | – | – | –
4.28×10^−3 S^−1 | HDAFPRPHLFRN [P1301, HDAFPRPHLFRN] | significantly increased | – | – | –
– | HYEADPYEAWYDAWDDIHTY (A TIM3-targeting binding peptide) [K1, 20-peptide targeting TIM3] | significantly increased | – | – | –
– | QNPPLENTVYQEPFWQHAVD (A TIM3-targeting binding peptide) [K7, 20-peptide targeting TIM3] | significantly increased | – | – | –
7.89×10^−3 S^−1 | SHDTRSPFTWGR [P1307, SHDTRSPFTWGR] | – | – | – | –
2.30×10^−2 S^−1 | SPFYYSGHQWVPHPRQAASY [K10] | significantly increased | – | – | –
1.32×10^−2 S^−1 | SQEVFAWTFSPRWTTAPKAL [K3] | significantly increased | – | – | –
– | TFLNSVPTYSYW (A TIM3-targeting binding peptide) [P1310, 12-peptide targeting TIM3] | significantly increased | – | – | –
1.60×10^−2 S^−1 | WQQNNPHLWDVFLGVPRTTE [K5] | significantly increased | – | – | –
